Results taken from patent US10874669B2 (WAYNE STATE UNIVERSITY, priority 2018, dated 2020).

Experiments:
[1] = target: cloned rat D2L receptors (Rattus norvegicus (Rat), UniProt P61169); assay: [3H]spiroperidol competition binding, rat D2L receptors in HEK-293 cells; details: values of Table 3; for Ki: rat D2 in HEK-293 cells; for D2/D3: ratio of Ki values
Text: (§1) All these procedures were described by us previously.

[2] = target: cloned rat D3 receptors (Rattus norvegicus (Rat), UniProt P19020); assay: [3H]spiroperidol competition binding, rat D3 receptors in HEK-293 cells; details: rat D3 in HEK-293 cells; values of Table 3
Sequence of cloned rat D3 receptors (P19020 whole entry): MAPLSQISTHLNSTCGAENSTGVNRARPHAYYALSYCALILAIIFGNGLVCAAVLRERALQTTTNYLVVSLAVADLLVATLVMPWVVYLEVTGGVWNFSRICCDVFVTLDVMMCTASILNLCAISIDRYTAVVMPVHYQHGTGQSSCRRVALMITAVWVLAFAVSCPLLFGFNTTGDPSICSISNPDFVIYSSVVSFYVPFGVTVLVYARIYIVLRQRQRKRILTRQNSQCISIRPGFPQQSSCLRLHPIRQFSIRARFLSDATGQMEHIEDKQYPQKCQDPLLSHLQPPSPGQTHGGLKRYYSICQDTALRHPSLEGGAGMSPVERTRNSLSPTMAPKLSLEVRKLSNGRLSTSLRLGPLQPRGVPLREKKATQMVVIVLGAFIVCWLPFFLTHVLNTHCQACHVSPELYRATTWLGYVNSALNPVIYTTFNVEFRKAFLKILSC
Protocol: A well established radioligand competition assay was carried out to evaluate binding affinity of the test compounds and were compared with that of the reference agent (S)-5-OH-DPAT (Table 3). Binding affinity to rat DA D2 and D3 receptors expressed in HEK-293 cells was determined as described by us previously. […] This indicated highest tolerance of the 4-substituted carbazole derivative for interaction with the D2 and D3 receptors.
as §1

[3] = target: human DA D3 receptors (Homo sapiens (Human), UniProt P35462); assay: [35S]GTPγS binding stimulation, human D3 receptors in CHO cells; format: biochemical
Sequence of human DA D3 receptors (P35462 whole entry): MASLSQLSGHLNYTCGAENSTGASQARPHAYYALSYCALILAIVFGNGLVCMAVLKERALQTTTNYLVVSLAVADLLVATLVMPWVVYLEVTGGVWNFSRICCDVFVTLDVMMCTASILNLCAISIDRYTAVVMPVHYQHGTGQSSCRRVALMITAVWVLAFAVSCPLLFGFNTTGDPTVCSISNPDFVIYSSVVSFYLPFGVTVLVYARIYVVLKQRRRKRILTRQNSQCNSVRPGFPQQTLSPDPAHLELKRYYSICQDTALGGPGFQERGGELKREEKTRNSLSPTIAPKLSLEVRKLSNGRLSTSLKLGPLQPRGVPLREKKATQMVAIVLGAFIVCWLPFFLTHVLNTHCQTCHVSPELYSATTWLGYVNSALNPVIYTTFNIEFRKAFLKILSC

[4] = target: human DA D2 receptors (Homo sapiens (Human), UniProt P14416); assay: [35S]GTPγS binding stimulation, human D2 receptors in CHO cells; format: biochemical
Sequence of human DA D2 receptors (P14416 whole entry): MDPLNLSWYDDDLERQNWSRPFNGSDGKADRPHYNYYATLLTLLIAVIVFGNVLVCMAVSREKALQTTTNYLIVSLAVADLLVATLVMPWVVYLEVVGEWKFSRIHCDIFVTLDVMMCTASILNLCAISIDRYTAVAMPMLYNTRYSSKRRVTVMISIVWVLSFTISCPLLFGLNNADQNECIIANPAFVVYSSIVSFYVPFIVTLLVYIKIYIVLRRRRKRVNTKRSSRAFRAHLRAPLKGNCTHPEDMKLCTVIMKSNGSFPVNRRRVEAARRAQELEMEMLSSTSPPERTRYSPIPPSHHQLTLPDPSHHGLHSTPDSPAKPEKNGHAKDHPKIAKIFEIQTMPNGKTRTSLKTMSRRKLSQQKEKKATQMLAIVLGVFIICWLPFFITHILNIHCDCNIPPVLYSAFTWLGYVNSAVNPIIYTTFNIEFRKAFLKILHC

[5] = target: cloned D3 receptors (Rattus norvegicus (Rat), UniProt P19020); assay: [3H]spiperone displacement, cloned D3 receptors in HEK cells; format: binding; details: means±SEM for 3 experiments
Sequence of cloned D3 receptors (P19020 whole entry): as the sequence (P19020 whole entry) above
Text: The following table provides inhibition constants for displacing [3H]spiperone binding to the cloned D2L and D3 receptors expressed in HEK cells. Results are means±SEM for 3 experiments each performed in triplicate. NR=Not repeated.

[6] = tested on: reserpine-induced hypolocomotion in rats; assay: Reversal of reserpine-induced hypolocomotion in rats; details: 10 μMol/kg, ip
Protocol: In this model depletion of catecholamines by reserpine results in catalepsy in rats.
The following commercially available drug was used in the experiment: reserpine hydrochloride (Alfa Aesar). […] The compounds for this study were administered in a volume of 0.1-0.2 mL for subcutaneous administration and 0.5-0.7 ml for interaperitoneal administration into each rat.
In rodent studies, animals were male and female Sprague-Dawley rats from Harlan (Indianapolis, Ind.) weighing 220-225 g unless otherwise specified. Animals were maintained in sawdust-lined cages in a temperature and humidity controlled environment at 22±1° C. and 60±5% humidity, respectively. A 12 h light/dark cycle was maintained, with lights on from 6:00 a.m. to 6:00 p.m. They were group-housed with unrestricted access to food and water. All experiments were performed during the light component.
Reserpine (5.0 mg/kg, sc) was administered 18 h before the injection of drug or vehicle. The rats were placed individually in the chambers for 1 h for acclimatization before administration of the test drugs or vehicle. Immediately after administration of drug or vehicle, animals were individually placed in Opto-Varimex 4 animal activity monitor chamber (Columbus Instruments, Ohio, USA) to start measuring locomotor activity. Locomotion was monitored for 6 h. […] The data were presented as horizontal activity (HACTV). […] The data were analyzed by one-way analysis of variance (ANOVA) followed by Dunnett's post hoc test.

[7] = compared with maximum stimulation by full agonist DA

Sequence of cloned rat D2L receptors (P61169 whole entry): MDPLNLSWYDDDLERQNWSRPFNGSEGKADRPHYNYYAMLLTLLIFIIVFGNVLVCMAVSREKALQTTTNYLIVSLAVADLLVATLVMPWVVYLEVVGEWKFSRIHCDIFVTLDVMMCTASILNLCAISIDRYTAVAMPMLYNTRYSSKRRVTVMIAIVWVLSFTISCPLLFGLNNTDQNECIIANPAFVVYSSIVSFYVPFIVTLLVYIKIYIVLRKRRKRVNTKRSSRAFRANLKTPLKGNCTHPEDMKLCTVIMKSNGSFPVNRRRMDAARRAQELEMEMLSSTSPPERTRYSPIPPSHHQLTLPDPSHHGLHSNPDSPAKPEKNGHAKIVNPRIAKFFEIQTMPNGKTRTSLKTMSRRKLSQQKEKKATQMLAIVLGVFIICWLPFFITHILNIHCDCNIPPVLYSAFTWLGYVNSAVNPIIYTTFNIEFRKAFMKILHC

Ki [1]	D2/D3 [1]	Ki [2]	Structure (SMILES)	other results
82.6 nM	12	7.18 nM	CCCN(CCN1CCN(CCn2c3ccccc3c3ccccc32)CC1)[C@H]1CCc2nc(N)sc2C1 [(−)-101, (S)—N^6-(2-(4-(2-(9H-carbazol-9-yl)ethyl)piperazin-1-yl)ethyl)-N^6-propyl-4,5,6,7-tetrahydrobenzo[d]thiazole-2,6-diamine]	
61.6 nM		1.94 nM	CCCN(CCN1CCN(c2ccc3[nH]c4ccccc4c3c2)CC1)[C@H]1CCc2c(O)cccc2C1 [(−)-95b, (S)-6-((2-(4-(9H-carbazol-3-yl)piperazin-1-yl)ethyl)(propyl)amino)-5,6,7,8-tetra-hydronaphthalen-1-ol]	
			CCCN(CCN1CCN(c2cccc3[nH]c4ccccc4c23)CC1)[C@H]1CCc2nc(N)sc2C1 [(−)-91c, (S)—N^6-(2-(4-(9H-carbazol-4-yl)piperazin-1-yl)ethyl)-N^6-propyl-4,5,6,7-tetrahydrobenzo[d]thiazole-2,6-diamine]	EC50 ([3]; CHO cells, read-out: EC50 (GTPγS), D3): 1.67 nM; Emax [3, 7]: 82%; EC50 ([4]; CHO cells, read-out: EC50 (GTPγS), D2): 22.2 nM; Emax [4, 7]: 57%
			CCCN(CCCC1(O)C=CC(O)=CC1)C1CCc2nc(N)sc2C1 (centres unmarked) [Compound 54, 4-(3-((2-Amino-4,5,6,7-tetrahydrobenzo[d]thiazol-6-yl)(propyl)amino)propyl)-benzene-1,4-diol]	Ki [5]: 11.9 ± 1.9 nM
504 nM	128	3.94 nM	CCCN(CCN1CCN(c2ccc3c(c2)[nH]c2ccccc23)CC1)[C@H]1CCc2nc(N)sc2C1 [(−)-91a, (S)—N^6-(2-(4-(9H-carbazol-2-yl)piperazin-1-yl)ethyl)-N^6-propyl-4,5,6,7-tetrahydrobenzo[d]thiazole-2,6-diamine]	
612 nM	196	3.12 nM	CCCN(CCN1CCN(c2ccc3[nH]c4ccccc4c3c2)CC1)C1CCc2nc(N)sc2C1 (centres unmarked) [Compound 90b, N^6-(2-(4-(9H-carbazol-3-yl)piperazin-1-yl)ethyl)-N^6-propyl-4,5,6,7-tetrahydrobenzo[d]thiazole-2,6-diamine]	
76.9 nM	9.86	7.8 nM	CCCN(CCN1CCN(c2cccc3[nH]c4ccccc4c23)CC1)C1CCc2nc(N)sc2C1 (centres unmarked) [Compound 90c, N^6-(2-(4-(9H-carbazol-4-yl)piperazin-1-yl)ethyl)-N^6-propyl-4,5,6,7-tetrahydrobenzo[d]thiazole-2,6-diamine]	
			CCCN(CCC)CCc1cccc2c1CC(=O)N2 [ropinirole, reference compound]	duration of locomotor activation ([6]; locomotion monitored for 6 h): shorter duration of action; reversal of reserpine-induced akinesia / hypolocomotion (horizontal activity) ([6]; reserpine 5 mg/kg sc, 18 h pretreatment, rats): fast onset of activation of locomotion
			CCCN(CCCCCc1cc(O)ccc1O)[C@@H]1CCc2nc(N)sc2C1 [(−)-36, (R)-2-(5-((2-Amino-4,5,6,7-tetrahydrobenzo[d]thiazol-6-yl)(propyl)amino)pentyl)benzene-1,4-diol]	Ki [5]: 0.78 ± 0.2 nM
435 nM	65.9	6.6 nM	CCCN(CCN1CCN(CCn2c3ccccc3c3ccccc32)CC1)C1CCc2nc(N)sc2C1 (centres unmarked) [Compound 100, N^6-(2-(4-(2-(9H-carbazol-9-yl)ethyl)piperazin-1-yl)ethyl)-N^6-propyl-4,5,6,7-tetrahydrobenzo[d]thiazole-2,6-diamine]	
			CCCN(CCCCCc1cc(O)ccc1O)C1CCc2nc(N)sc2C1 (centres unmarked) [Compound 35, 2-(5-((2-Amino-4,5,6,7-tetrahydrobenzo[d]thiazol-6-yl)(propyl)amino)pentyl)benzene-1,4-diol]	Ki [5]: 1.01 ± 0.28 nM
902 nM	146	6.18 nM	CCCN(CCN1CCN(c2ccc3c(c2)[nH]c2ccccc23)CC1)C1CCc2nc(N)sc2C1 (centres unmarked) [Compound 90a, N^6-(2-(4-(9H-carbazol-2-yl)piperazin-1-yl)ethyl)-N^6-propyl-4,5,6,7-tetrahydrobenzo-[d]thiazole-2,6-diamine]	
